target: T1, Uch-L3 (Homo sapiens, UniProt P15374); test: UCH-L3 activity assay (Ub-AMC); type: biochemical; conditions: 400 nM Ub-AMC, 13 pM enzyme, 30 min pre-incubation, 60 min at 37° C., sigmoidal fit; read-out: Uch-L3 (inhibition of cysteine protease activity)
T1 sequence (P15374 1-230): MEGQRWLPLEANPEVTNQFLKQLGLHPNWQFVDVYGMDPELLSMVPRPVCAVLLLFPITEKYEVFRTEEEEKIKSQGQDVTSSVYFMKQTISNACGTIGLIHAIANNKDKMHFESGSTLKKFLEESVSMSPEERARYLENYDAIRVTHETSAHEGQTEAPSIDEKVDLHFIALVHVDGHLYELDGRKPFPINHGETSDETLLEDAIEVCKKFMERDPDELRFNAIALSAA
Procedure: Uch-L3 was diluted in USP buffer (50 mM Tris HCl; 0.5 mM EDTA; 5 mM DTT; 0.01% Triton X-100; Bovine Serum Albumin 0.05 mg.ml^−1 pH7.6). Compounds stocks (100 mM) were stored at −20° C. in DMSO. Compounds were tested at the following final concentrations: 100 μM; 33.3 μM; 11.1 μM; 3.7 μM; 1.23 μM; 412 nM; 137 nM; 45.7 nM, 15.2 nM; 5 nM.
Reactions were performed as duplicates in Black LJL 96 well plates (HE microplates; Molecular Devices; 20 μl final reaction volume). The substrate concentration for Uch-L3 was 400 nM Ub-AMC (Boston Biochem). The concentration of the enzyme (Uch-L3) in specificity assays was 13 pM. The concentrations were determined in order to perform specificity assays under initial velocities at fixed substrate concentration. Compounds were pre-incubated with enzymes for 30 minutes at 25° C. Reactions were initiated by addition of substrate to the plates containing the enzymes (+/−compounds) diluted in assay buffer.
Reactions were incubated for 60 minutes at 37° C. Reactions were stopped by adding acetic acid (100 mM final). Readings were performed on a Pherastar Fluorescent Reader (BMG). δ Emission 380 nm; 6 Excitation=460 nm. Data (mean values +/−standard deviation) were analyzed as % of control (no compound) and plotted as percentage versus the Log of the compound concentration using GraphPad (Prism). Data were fitted to a sigmoidal model (variable slope).

| Structure (SMILES) | IC50 [nM] |
| --- | --- |
| CON=C1c2ccccc2-c2nn3c(C)nnc3nc21 (mixture of isomers) [5a, 3-Methyl-1,2,3a,4,10-pentaaza-cyclopenta[b]fluoren-9-one O-methyl-oxime] | 410 |
| C=CCON=C1c2ccccc2-c2nn3c(C)nnc3nc21 (mixture of isomers) [5b, 3-Methyl-1,2,3a,4,10-pentaaza-cyclopenta[b]fluoren-9-one O-allyl-oxime] | 272 |
| C=CCON=C1c2ccccc2-c2nn3c(CCCC)nnc3nc21 (mixture of isomers) [5d, 3-Butyl-1,2,3a,4,10-pentaaza-cyclopenta[b]fluoren-9-one O-allyl-oxime] | 250 |
| CCCCCCCCCCON=C1c2ccccc2-c2nn3nnnc3nc21 (mixture of isomers) [8a, 1,2,3,3a, 4,10-Hexaaza-cyclopenta[b]fluoren-9-one O-decyl-oxime] | 2000 |
| COCCON=C1c2ccccc2-c2nn3nnnc3nc21 (mixture of isomers) [8b, 1,2,3,3a, 4,10-Hexaaza-cyclopenta[b]fluoren-9-one O-(2-methoxy-ethyl)-oxime] | 48 |
| c1ccc(OCCCON=C2c3ccccc3-c3nn4nnnc4nc32)cc1 (mixture of isomers) [8c, 1,2,3,3a,4,10-Hexaaza-cyclopenta[b]fluoren-9-one O-(3-phenoxy-propyl)-oxime] | 121 |
| C=CCON=C1c2ccccc2-c2nn3c(CC)nnc3nc21 (mixture of isomers) [10f, 3-Ethyl-1,2,3a,4,10-pentaaza-cyclopenta[b]fluoren-9-one O-allyl-oxime] | 235 |
| C=CCON=C1c2ccccc2-c2nn3nnnc3nc21 (mixture of isomers) [compound 6, 1,2,3,3a,4,10-hexaaza-cyclopenta[b]fluoren-9-one O-allyl-oxime] | 32 |
| ON=C1c2ccccc2-c2nn3nnnc3nc21 (mixture of isomers) [compound 7, 1,2,3,3a,4,10-hexaaza-cyclopenta[b]fluoren-9-one oxime] | 57 |

Reference: US20100048575A1, “NOVEL TETRACYCLIC INHIBITORS OF CYSTEINE PROTEASES, THE PHARMACEUTICAL COMPOSITIONS THEREOF AND THEIR THERAPEUTIC APPLICATIONS” (priority 2006, published 2010)
